Laboratory results reported in the NIST ThermoML archive (doi:10.1016/j.fluid.2013.12.024).
Numbers after ± are expanded uncertainties.

What was measured:
[1] = Molar enthalpy of transition or fusion; conditions: Crystal; DSC
[2] = Crystal; DTA

- Molar enthalpy of transition or fusion [1]: 8.38 ± 0.234 kcal/mol
- Normal melting temperature [2]: 315.67 ± 0.5 °C
Compound: O=c1c(-c2ccc(O)cc2)coc2cc(O)ccc12 [daidzein]
